# In ChEMBL document CHEMBL3507680, “University of Dundee, Gates Library screen for HepG2 cell viability”:
# Test: Human HepG2 cell viability assay in 384 well format
# Type: toxicity, cell-based
# Parameters: dose 125 nL, time 70.5 hour; concentration not given beside the values
# Settings: HepG2 cells, read-out: Inhibition
row,Structure (SMILES),cytotoxicity at 70.5 h
1,CC(C(=O)NC1CC1)S(=O)(=O)c1cc2c(cc1Cl)OCCO2 (configuration not stated),-8.64%
2,CCn1ccnc1SCCn1cnc2ccsc2c1=O,-10%
3,CC(C)NC(=O)C(C)S(=O)(=O)c1cc2c(cc1Cl)OCCO2 (configuration not stated),-7.06%
4,COc1cncc(N2CCN(Cc3ccncc3Cl)CC2)n1,-9.33%
5,Cc1nsc(NCc2ccc(CS(=O)(=O)NC(C)C)cc2)n1,-9.39%
6,Cn1cc(CNc2cnn(CC3CCCO3)c2)c(-c2ccncc2)n1 (configuration not stated),4.43%
7,Cc1ccc(C)c(OCC(O)Cn2ncc3cnn(C)c(=O)c32)c1 (configuration not stated),6.69%
8,Cc1nsc(NCc2ccc(S(=O)(=O)N(C)C(C)C)cc2)n1,16.6%
9,COC(=O)C1CCCCN1Cc1cccc(C(=O)NCc2ccco2)c1 (configuration not stated),-10.4%
10,CC(C)OCCOCc1cccc(NC(=O)N2CCCC(O)C2)c1 (configuration not stated),-9.87%
11,COc1ccc(CNC2CCN(c3ccccc3)C2)c(OC)c1OC (configuration not stated),19.7%
12,COc1cncc(N2CCN(Cc3ccco3)CC2)n1,-12.1%
13,CCN(CCNC(=O)C1CCN(C(C)=O)CC1)c1ccccc1C,-12.4%
14,CCc1nc(CN2CCN(C(=O)c3csc(C(C)C)n3)CC2)no1,33.2%
15,Cc1ccccc1CS(=O)(=O)CC(=O)N(C)Cc1cccc(F)c1,-6.34%
16,Cc1noc(C)c1CS(=O)(=O)CC(=O)N(C)Cc1cccc(F)c1,-3.7%
17,CC(=O)NC1(C(=O)N(C)Cc2c(C)noc2C)CCCCC1,20.8%
18,COc1ccccc1N1CCC(CNS(=O)(=O)c2cccs2)C1 (configuration not stated),-6.04%
19,CC(C)C(=O)N1CCC(NCc2c(C(C)C)nn(C)c2N(C)C)CC1,-5.89%
20,O=C1OCCN1CCCN1CCCC1c1ccc(O)cc1 (configuration not stated),-3.89%
21,COC(=O)C(NC(=O)COC1CCCCC1)c1ccccc1 (configuration not stated),5.11%
22,CNC(=O)C(C)S(=O)(=O)Cc1csc(-c2cccs2)n1 (configuration not stated),-7.57%
23,CCN1CCN(c2ccc(C(=O)NCCn3ccnc3)cc2F)CC1,-3.77%
24,CN(C(=O)CN1CCc2nn(C)c(=O)cc2C1)c1nccs1,-4.13%

row,Structure (SMILES),cytotoxicity at 70.5 h
1,CCCn1nc2c(cc1=O)CN(CC(=O)N(C)c1nccs1)CC2,-4.23%
2,Cc1cc(C(=O)NS(=O)(=O)Cc2ccon2)c(C)n1C(C)C,-4.61%
3,CNC(=O)C1CCCN(C(=O)NCCC2Cc3ccccc3C2)C1 (configuration not stated),-1.76%
4,Cc1cc(C(=O)NS(=O)(=O)Cc2ccon2)c(C)o1,-3.93%
5,COCc1nc(C(=O)N2CCN(Cc3ccsc3)CC2)cs1,-0.448%
6,COCCN1CCC(NCc2c(C(C)C)nn(C)c2N(C)C)CC1,24.2%
7,CC(C)c1nn(C)c(N(C)C)c1CNC1CCN(CC2CC2)CC1,0.338%
8,c1cc(CN2CCSC3(CCCCC3)C2)no1,-1.3%
9,c1cc(CN2CCOC3(CCCC3)C2)no1,-2.72%
10,COc1ccccc1N1CCC(CNCc2c(C)nn(C)c2OC)C1 (configuration not stated),0.53%
11,CC(=O)N1CCCN(C(C)c2ccc(Br)cc2)CC1 (configuration not stated),17.2%
12,CCCc1nc(CNC2(c3nccs3)CCCC2)cs1,4.59%
13,c1cc(CN2CCCC2)ccc1CNc1cncc2nnnn12,-4.34%
14,c1cc(N2CCSCC2)ccc1CNc1cncc2nnnn12,-12.4%
15,c1ccc(CN2CCCC2)c(CNc2cncc3nnnn23)c1,-7.51%
16,CN(CC(N)=O)C(=O)c1csc(Br)c1,-7.59%
17,CC(C)(NC(=O)c1ccc(-c2ccccc2F)s1)C(N)=O,12.6%
18,COc1cccc(CN(C)S(=O)(=O)N2CCOCC2)c1,2.16%
19,CS(=O)(=O)NCC1CCCN(C(=O)Nc2cccnc2N2CCCC2)C1 (configuration not stated),-0.725%
20,CS(=O)(=O)NCC1CCCN(C(=O)Nc2ccccc2Cl)C1 (configuration not stated),1.65%
21,O=C(NCc1ccc(OCC2CC2)nc1)c1c(F)cccc1F,-3.71%
22,CN(Cc1cnn(C)c1)C(=O)c1ccc(=O)n(C)n1,-1.81%
23,CC(C)c1nn(C)c(N(C)C)c1CNC1CCN(C2CC2)CC1,-2.94%
